We go through 82 compounds from PubChem BioAssay AID493130 (Broad Institute, 2011).

Molecules are shown by their SMILES. Records with an inconclusive call do not appear. Activity calls are given as the source filed them.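 The calls were made as follows: active = signal-lowering compounds whose fitted half-maximal concentration is at most ten times their highest tested dose; inconclusive = flat fit between -30 and -70%, or poor fit; inactive = flat within 30%, signal rising, or potency beyond limit.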 Bounds are passed on as bounds.

The first experiment has as its target POS-1 (Caenorhabditis elegans) binding to mex-3 RNA. Kind of experiment: inhibitors of POS-1/mex-3 RNA binding, dose response, counter-screen for MEX-5 RNA-binding inhibitor project, biochemical, fluorescence polarization, cherry-picked samples, set 2 (AID 493130).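 Also: POS-1 as maltose binding protein fusion made in E. coli with FITC RNA.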 Conditions: POS-1/mex-3 RNA fluorescence polarization, 1 h.
Regarding `Nc1ccc(N(CCO)CCO)cc1`, the AC50 is 6.49 µM.

`CN1CCN(c2ccc([N+](=O)[O-])c3no[n+]([O-])c23)CC1`: the AC50 was 3.3 µM.

Turning to `NS(=O)(=O)c1ccc(-c2ccc(C=C3C(=O)NC(=S)NC3=O)o2)cc1`, the concentration at half-maximal activity (AC50) was 8.28 µM.

As for `CN(C)[C@@H]1C(=O)C(C(N)=O)=C(O)[C@@]2(O)C(=O)C3=C(O)c4c(O)cccc4[C@@](C)(O)[C@H]3[C@H](O)[C@@H]12`, the AC50 is 4.07 µM.

On to `COc1ccc(N=Nc2nc3ccc(Br)cc3n2C)cc1`, for which the concentration at half-maximal activity (AC50) is 2.16 µM.

As for `Cc1cc[n+](-c2[nH]c(=O)sc2/C=N/NC([S-])=Nc2ccccc2)cc1`, the concentration at half-maximal activity (AC50) was 2.39 µM.

Take `CCOc1ccc(N=Nc2c(=O)[nH]n3c(=O)cc(C)[nH]c23)cc1`: the AC50 is > 10 µM (inactive).

As for `Cn1c(=O)c(Nc2ccc(Cl)cc2)c2c3c(cccc31)C(=O)c1ccccc1-2`, the half-maximal activity concentration (AC50) was 0.907 µM.

With `O=C(NNC(=O)c1ccccc1O)c1ccc(S(=O)(=O)Nc2ccccc2)cc1`, the concentration at half-maximal activity (AC50) is 4.17 µM.

`CC1CC(=O)c2c(cc3c(-c4c(O)cc(O)c5c(O)c6c(cc45)OC(C)CC6=O)c(O)cc(O)c3c2O)O1` (configuration not stated): the AC50 is 8.29 µM.

In the case of `Cc1c2ccccc2nc2c(F)c(NCCO)c(F)c(F)c12`, the AC50 was 0.854 µM.

For `Nc1c(C(=O)c2cccs2)sc2nsc(SCCN3CCCCC3)c12`, the AC50 is 6.39 µM.

For the compound `COc1ccc(/C(O)=C/c2nc3ccccc3n(-c3ccccc3)c2=O)cc1`, the AC50 was 3.23 µM.

Still in this experiment, the particulars now being: POS-1/mex-3 RNA fluorescence polarization, 1 h; at 10 µM (top of the series).
As for `C#CCOCCOCCOCCNc1nc(N2CCN(C(=O)[C@H](CCCCN)n3cc(C(N)CO)nn3)CC2)nc(N2CCN(C(=O)[C@H](CCC(=O)O)n3cc(C(N)CC(C)C)nn3)CC2)n1` (some centres not stated), the “activity change, negative = inhibition” value was “inactive”.

With `COc1ccc(C2c3sc(=O)[nH]c3SCC2C(N)=O)cc1` (configuration not stated), the “activity change, negative = inhibition” value was “inactive”.

In the case of `CN(C)C1C(=O)C(C(N)=O)=C(O)C2(O)C(=O)C3=C(O)c4c(O)cccc4C(C)(O)C3CC12` (configuration not stated), the “activity change, negative = inhibition” value is “inactive”.

On to `CN(C)S(=O)(=O)c1ccc(Cl)c(C(=O)Nc2cccc3ncccc23)c1`, for which the “activity change, negative = inhibition” value is “inactive”.

In the case of `COC(=O)C1=C(C)OC(N)=C(C#N)C1c1cc(OC)c(OCC(N)=O)cc1Cl` (configuration not stated), the “activity change, negative = inhibition” value was “inactive”.

Consider `N#C/C(C(N)=O)=C1/CCc2ccccc2N1`, for which the “activity change, negative = inhibition” value is “inactive”.

In the case of `CCCCn1c(O)c(N=Nc2ccccn2)c2ccccc21`, the “activity change, negative = inhibition” value was “inactive”.

Take `CCCCn1c(N)c(N(Cc2ccccc2OC)C(=O)C(C)C)c(=O)[nH]c1=O`: the “activity change, negative = inhibition” value is “inactive”.

For the compound `O=C(O)c1ccc(N2C(=O)c3cccc4c(C(=O)O)ccc(c34)C2=O)cc1`, the “activity change, negative = inhibition” value is “inactive”.

As to `COc1cccc(C2C=C(c3cccs3)Nc3ncnn32)c1OC` (configuration not stated), the “activity change, negative = inhibition” value was “inactive”.

On to `NC(=S)N=Nc1c(O)[nH]c2ccccc12`, for which the “activity change, negative = inhibition” value was “inactive”.

As for `COc1ccc(C(=O)N2C(=S)NC(=O)/C2=C\c2ccc(C)cc2)cc1`, the “activity change, negative = inhibition” value is “inactive”.

Take `Cn1c(O)c(C2=c3ccccc3=NC2=O)[nH]c1=S`: the “activity change, negative = inhibition” value was “inactive”.

In the case of `Cc1nn(C)cc1C(=O)NNC(=S)Nc1ccccc1`, the “activity change, negative = inhibition” value is “inactive”.

In the case of `O=C(O)Cn1c(O)c(C2=c3ccccc3=NC2=O)sc1=O`, the “activity change, negative = inhibition” value was “inactive”.

Regarding `Cc1cccc(NC(=O)CN2C(=O)S/C(=C\c3ccc(-c4cccc(C(=O)O)c4C)o3)C2=O)c1`, the “activity change, negative = inhibition” value was “inactive”.

With `O=C(O)CCCC(=O)NNc1nc(-c2ccccc2)c2cc(Cl)ccc2n1`, the “activity change, negative = inhibition” value was “inactive”.

Take `C#CCN1C(=O)S/C(=C\c2ccc(N3CCOCC3)cc2C)C1=O`: the “activity change, negative = inhibition” value was “inactive”.

On to `CNC(=O)c1c(NC(=O)c2ccc(S(=O)(=O)N(C)c3ccccc3)cc2)sc2c1CCN(C(C)C)C2`, for which the “activity change, negative = inhibition” value is “inactive”.

As to `Cc1nn(C(C)C(=O)NNC(=S)Nc2ccc(Cl)cc2)c(C)c1[N+](=O)[O-]` (configuration not stated), the “activity change, negative = inhibition” value is “inactive”.

On to `COC(=O)CCC(=O)OC1(C)C(=O)C2=CN(Cc3ccccc3)C(c3ccc(OC)cc3)=CC2=C(Br)C1=O` (configuration not stated), for which the “activity change, negative = inhibition” value is “inactive”.

Turning to `CN1C(=O)NC(c2ccccc2Cl)C2=C1CC(C)(C)CC2=O` (configuration not stated), the “activity change, negative = inhibition” value was “inactive”.

Take `COc1ccccc1NCc1cc(=O)oc2c(C)c(O)ccc12`: the “activity change, negative = inhibition” value was “inactive”.

On to `O=C1/C(=C\c2ccc(Br)o2)Cc2ccccc21`, for which the “activity change, negative = inhibition” value was “inactive”.

For `COc1ccc(-c2cn[nH]c2-c2ccc(O)cc2O)cc1OC`, the “activity change, negative = inhibition” value was “inactive”.

As to `COc1ccccc1C(=O)NNC(=O)c1csc(N2CCOCC2)n1`, the “activity change, negative = inhibition” value was “inactive”.

Take `Cc1ccc2cc(C#N)c(N3CCCN(C(=O)C4CCCO4)CC3)nc2c1C` (configuration not stated): the “activity change, negative = inhibition” value was “inactive”.

Consider `O=c1c(OC2OC(CO)C(O)C(O)C2O)c(-c2ccc(O)c(O)c2)oc2cc(O)cc(O)c12` (configuration not stated), for which the “activity change, negative = inhibition” value was “inactive”.

In the case of `O=C(NC1CCSc2ccccc21)c1cccc(Br)c1` (configuration not stated), the “activity change, negative = inhibition” value was “inactive”.

On to `Cc1cc(C)c2ccc(=S)[nH]c2n1`, for which the “activity change, negative = inhibition” value was “inactive”.

Turning to `O=C1N=c2ccccc2=C1c1sc(NS(=O)(=O)c2ccccc2)nc1O`, the “activity change, negative = inhibition” value was “inactive”.

`COc1ccc2c(c1)NC(c1ccc(N(C)C)cc1)c1cccn1-2` (configuration not stated): the “activity change, negative = inhibition” value is “inactive”.

With `O=C(NN=C1C2CC3CC1CC(Cl)(C3)C2)c1ccccn1`, the “activity change, negative = inhibition” value is “inactive”.

For `Cc1cccc(/C=C(\C#N)C(=O)Nc2ccccn2)c1`, the “activity change, negative = inhibition” value was “inactive”.

Take `CC1=CC(=C2C(=O)NC(=S)NC2=O)C=C(C(F)(F)F)N1Cc1ccccc1`: the “activity change, negative = inhibition” value was “inactive”.

As for `O=C(N/N=C/c1c(O)n(Cc2ccco2)c(=O)[nH]c1=O)c1ccccc1`, the “activity change, negative = inhibition” value is “inactive”.

Take `Cc1cc(/C=C2\C(=O)NC(=O)N(c3cccc(Br)c3)C2=O)c(C)n1C`: the “activity change, negative = inhibition” value is “inactive”.

On to `Cc1cccc(C)c1NC(=O)/C(C#N)=C/c1cccs1`, for which the “activity change, negative = inhibition” value is “inactive”.

Turning to `COc1ccc(N(C(=O)CCl)C(C)(C(=O)Nc2c(C)cccc2C)c2ccccn2)cc1` (configuration not stated), the “activity change, negative = inhibition” value was “inactive”.

Consider `Cc1ccc(-c2nc(C=Nc3cccc(C)c3)c(O)o2)cc1`, for which the “activity change, negative = inhibition” value is “inactive”.

Consider `CSc1nc(N)c(N=Nc2ccc([As](=O)(O)O)cc2)c(=O)[nH]1`, for which the “activity change, negative = inhibition” value is “inactive”.

`COc1ccc(OC)c(Nc2nc(-c3ccc(O)c(O)c3)cs2)c1`: the “activity change, negative = inhibition” value is “inactive”.

Regarding `Oc1ccc(/C=N/Nc2ncnc3nc[nH]c23)cc1`, the “activity change, negative = inhibition” value was “inactive”.

With `Nc1c(C(=O)Nc2ccccc2)sc2nc3c(c(-c4ccco4)c12)CCC3`, the “activity change, negative = inhibition” value was “inactive”.

With `CC1=NOC(=O)/C1=C/c1ccc2c(c1)OCO2`, the “activity change, negative = inhibition” value is “inactive”.

Turning to `Nc1ccc(Oc2ncccn2)cc1`, the “activity change, negative = inhibition” value is “inactive”.

In the case of `Cc1cccc(C(=O)NNC(=O)c2csc(N3CCOCC3)n2)c1C`, the “activity change, negative = inhibition” value is “inactive”.

As for `CCN(Cc1ccccc1)c1ccc(/C=C(\C#N)c2ccccn2)cc1`, the “activity change, negative = inhibition” value was “inactive”.

Consider `Cc1cccn2c(=O)c3cc(C(=O)NCCCn4ccnc4)n(C)c3nc12`, for which the “activity change, negative = inhibition” value is “inactive”.

Turning to `O=C(O)c1ccc2cccnc2n1`, the “activity change, negative = inhibition” value was “inactive”.

In the case of `CC1=C(C(=O)OCc2ccccc2)C(c2ccc(N(C)C)cc2)NC(=O)N1` (configuration not stated), the “activity change, negative = inhibition” value was “inactive”.

Regarding `COc1cc2c(cc1N/C=C(\C#N)c1nc(-c3ccc(F)cc3)cs1)oc1ccccc12`, the “activity change, negative = inhibition” value is “inactive”.

Turning to `COc1ccc(CC(=O)NNC(=O)c2cnccn2)cc1`, the “activity change, negative = inhibition” value was “inactive”.

In the case of `O=C(Cc1cccs1)Nc1nnc(SCc2ccc(Br)cc2)s1`, the “activity change, negative = inhibition” value is “inactive”.

For the compound `COc1ccc2c(c1OC)CN1CCc3cc4c(cc3[C@@H]1[C@@H]2O)OCO4`, the “activity change, negative = inhibition” value was “inactive”.

For the compound `Cc1c(C(=O)O)c(C(=O)O)nc2ccc(N3CCOCC3)cc12`, the “activity change, negative = inhibition” value was “inactive”.

For `Cc1cc(C)cc(NC(=O)N(C)Cc2ccccc2)c1`, the “activity change, negative = inhibition” value is “inactive”.

On to `CCCCCC(=O)N(Cc1ccccc1)c1c(N)n(CCOC)c(=O)[nH]c1=O`, for which the “activity change, negative = inhibition” value is “inactive”.

For the compound `CN(C)CC(O)COc1ccc(C(C)(C)c2ccc(OCC(O)CN(C)C)cc2)cc1` (configuration not stated), the “activity change, negative = inhibition” value was “inactive”.

In the case of `C#CCOCCOCCOCCNc1nc(N2CCN(C(=O)[C@H]([C@@H](C)CC)n3cc([C@@H](N)CO)nn3)CC2)nc(N2CCN(C(=O)[C@H]([C@@H](C)CC)n3cc([C@@H](N)CO)nn3)CC2)n1`, the “activity change, negative = inhibition” value was “inactive”.

For the compound `O=C(Cc1csc(N2CCOCC2)n1)N/N=C/c1ccc(O)c(O)c1O`, the “activity change, negative = inhibition” value was “inactive”.

`O=C(NNC(=O)c1ccc(O)c(Cl)c1)c1cccc(S(=O)(=O)N2CCOCC2)c1`: the “activity change, negative = inhibition” value was “inactive”.

Regarding `Cc1cccc(/C=N/NC(=O)Cn2nnnc2N)n1`, the “activity change, negative = inhibition” value is “inactive”.

`Cc1ccccc1S(=O)(=O)NNC(=O)C(=O)NNc1ccccn1`: the “activity change, negative = inhibition” value was “inactive”.

Consider `COCCNc1nnc(SCC(=O)NNC(=O)c2ccc([N+](=O)[O-])cc2)s1`, for which the “activity change, negative = inhibition” value was “inactive”.

Take `Cc1c(O)ccc(-c2[nH]ncc2-c2nc3ccccc3s2)c1O`: the “activity change, negative = inhibition” value was “inactive”.

Take `Cc1nc2cc(C(=O)O)ccc2n1-c1ccc(F)cc1F`: the “activity change, negative = inhibition” value was “inactive”.

For the compound `CN1CCc2nc3sc(C(=O)NC(C)(C)C)c(N)c3cc2C1`, the “activity change, negative = inhibition” value is “inactive”.

In the case of `CC(=O)NN1C(=O)/C(=C2/Sc3ccccc3N2C)SC1=S`, the “activity change, negative = inhibition” value was “inactive”.

The AC50 is the midpoint of the concentration-response curve, whichever way the signal moves.
